Measured values taken from patent US9045781B2, “Process for the production of optically-active esters of lactic acid and lactyllactic acid” (Plaxica Limited, priority 2011, dated 2015).

Text: The solubility of lactide in different solvents was investigated.

CC1OC(=O)C(C)OC1=O (racemic) [lactide, 3,6-dimethyl-1,4-dioxan-2,5-dione]
Solubility of lactide in a n-BuOH/acetone system: 1.44 g | Solubility of lactide in different solvents, rank order: Acetone>>n-BuOH>t-BuOH
